Patent publication US20070219186A1, “Pyrazolo[1,5-A]pyrimidine derivatives and methods of use thereof” (priority 2006, published 2007)
Where two headings read alike, the source gives them in different places.

Molecular target: T1, human B-Raf (Homo sapiens, UniProt P15056)
T1 construct: Flag; GST; made in house; host or cells: Sf9 insect cells (B-Raf); E. coli (MEK1-GST)
Experiment: B-Raf Kinase to MEK1 ELISA
Format: biochemical
Details: for inhibition at 10 µM: read-out: % Inhib./10 uM
Source text: TITLE: B-Raf Kinase to MEK1 ELISA
PURPOSE: To discover B-Raf Kinase inhibitors that can inhibit growth of tumor cells which contain oncogenic forms of Receptor Tyrosine Kinases or K-Ras, or B-Raf kinase.
Reagents: Flag/GST-tagged recombinant human B-Raf produced in Sf9 insect cells, human non-active Mek-1-GST (recombinant protein produced in E. coli); and a phospho-MEK1 specific poly-clonal Ab from Cell Signaling Technology (cat. #9121).
B-Raf1 Kinase Assay Procedure:
B-Raf-1 is used to phosphorylate GST-MEK1. MEK1 phosphorylation is measured by a phospho-specific antibody (from Cell Signaling Technology, cat. #9121) that detects phosphorylation of two serine residues at positions 217 and 221 on MEK1.
B-Raf Assay Stock Solutions:
1. Assay Dilution Buffer (ADB): 20 mM MOPS, pH 7.2, 25 mM β-glycerol phosphate, 5 mM EGTA, 1 mM sodium orthovanadate, 1 mM dithiothreitol.
2. Magnesium/ATP Cocktail: 200 μM cold ATP and 40 mM magnesium chloride in ADB.
3. Active Kinase: Active B-Raf: used at ˜20 ng per assay point.
4. Non-active GST-MEK1: Use at 100 nM (50 nM final).
6. Anti-GST Ab (Pharmacia)
7. Anti-rabbit Ab/Europium conjugate (Wallac)
1. Add 25 μl of ADB containing B-Raf and Mek per assay (i.e. per well of a 96 well plate)
2. Add 25 μl of 0.2 mM ATP and 40 mM magnesium chloride in ADB.
3. Incubate for 60 minutes at RT in a shaking incubator.
4. Transfer this mixture to an anti-GST Ab coated 96 well plate (Nunc Immunosorb plates coated o/n with a-GST.
5. Incubate for 60 minutes at 30° C. in a shaking incubator
6. Wash 3× with TBST, add Anti-Phospho MEK1 (1:1000)
7. Incubate for 60 minutes at 30° C. in a shaking incubator
8. Wash 3× with TBST, add Anti-rabbit Ab/Europium conjugate (Wallac) (1:500)
9. Incubate for 60 minutes at 30° C. in a shaking incubator
10. Add 100 ul of Wallac Delfia Enhancement Solution and shake for 10 minutes.
11. Read plates in Wallac Victor model Plate Reader.
12. Collect data analyze in Excel for single point and IC50 determinations.
Typically Raf-1 assay is run at cpd concentrations from 10 μM to 30 nM in half log dilutions. (% inhibition is determined for each cpd concentration)

[1] = median, cpd concentrations from 10 μM to 30 nM in half log dilutions, read-out: Median IC50

T1 sequence (P15056 whole entry): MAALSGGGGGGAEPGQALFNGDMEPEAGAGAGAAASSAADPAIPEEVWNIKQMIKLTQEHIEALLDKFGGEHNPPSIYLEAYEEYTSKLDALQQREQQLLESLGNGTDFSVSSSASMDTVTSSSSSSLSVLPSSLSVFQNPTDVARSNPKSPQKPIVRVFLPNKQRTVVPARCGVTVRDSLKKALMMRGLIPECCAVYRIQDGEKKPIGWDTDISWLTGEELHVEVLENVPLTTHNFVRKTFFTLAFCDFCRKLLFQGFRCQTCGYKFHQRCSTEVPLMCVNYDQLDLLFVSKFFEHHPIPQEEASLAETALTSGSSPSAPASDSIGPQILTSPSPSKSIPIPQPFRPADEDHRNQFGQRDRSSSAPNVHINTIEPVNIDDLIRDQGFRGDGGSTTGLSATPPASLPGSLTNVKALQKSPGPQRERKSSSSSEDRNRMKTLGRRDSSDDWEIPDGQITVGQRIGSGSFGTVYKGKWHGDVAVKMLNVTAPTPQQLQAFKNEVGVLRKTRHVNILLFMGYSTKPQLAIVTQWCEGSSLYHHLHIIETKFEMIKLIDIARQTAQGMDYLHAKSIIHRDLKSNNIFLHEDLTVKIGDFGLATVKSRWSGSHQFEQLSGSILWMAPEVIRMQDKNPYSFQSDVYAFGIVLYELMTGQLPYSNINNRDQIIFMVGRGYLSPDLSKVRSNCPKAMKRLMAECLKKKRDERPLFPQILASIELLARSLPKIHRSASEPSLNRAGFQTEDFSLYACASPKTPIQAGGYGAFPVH

An IC50 [1] greater than 10000 nM and an inhibition at 10 µM of 47% were found for `O=C(Nc1cccc(-c2ccnc3cc(N4CCC[C@H]4CN4CCCC4)nn23)c1)c1cccc(C(F)(F)F)c1` [Example 211, N-(3-{2-[(2S)-2-(pyrrolidin-1-ylmethyl)pyrrolidin-1-yl]pyrazolo[1,5-a]pyrimidin-7-yl}phenyl)-3-(trifluoromethyl)benzamide] in this work.
An IC50 [1] of 720 nM and an inhibition at 10 µM of 66% were found for `CCOC(=O)c1cnn2c(-c3cccc(NC(=O)c4cccc(C(F)(F)F)c4)c3)ccnc12` [Example 1, Pyrazolo[1,5-a]pyrimidine-3-carboxylic acid, 7-[3-[[3-(trifluoromethyl)-benzoyl]amino]phenyl]-, ethyl ester] in this work.
An IC50 [1] of 122 nM and an inhibition at 10 µM of 97% were found for `O=C(Cc1nnn[nH]1)Nc1cccc(-c2cnn3c(-c4cccc(NC(=O)c5cccc(C(F)(F)F)c5)c4)ccnc23)c1` [Example 256, N-[3-(3-{3-[(1H-tetrazol-5-ylacetyl)amino]phenyl}pyrazolo[1,5-a]pyrimidin-7-yl)phenyl]-3-(trifluoromethyl)benzamide] in this work.
An IC50 [1] greater than 10000 nM and an inhibition at 10 µM of 13% were found for `Cc1ccc(C(=O)Nc2cccc(-c3ccnc4c(C#N)cnn34)c2)cc1C(F)(F)F` [Example 69, N-[3-(3-cyanopyrazolo[1,5-a]pyrimidin-7-yl)phenyl]-4-methyl-3-(trifluoromethyl)benzamide] in this work.
An IC50 [1] of 110 nM and an inhibition at 10 µM of 96% were found for `Cc1ccc(C(=O)Nc2cccc(-c3ccnc4cc(N5CCOCC5)nn34)c2)cc1C(F)(F)F` [Example 194, 4-methyl-N-[3-(2-morpholin-4-ylpyrazolo[1,5-a]pyrimidin-7-yl)phenyl]-3-(trifluoromethyl)benzamide] in this work.
An IC50 [1] of 110 nM and an inhibition at 10 µM of 96% were found for `O=C(Nc1cccc(-c2ccnc3c(-c4cccnc4)cnn23)c1)Nc1ccc(Cl)c(C(F)(F)F)c1` [Example 174, N-[4-chloro-3-(trifluoromethyl)phenyl]-N′-[3-(3-pyridin-3-ylpyrazolo[1,5-a]pyrimidin-7-yl)phenyl]urea] in this work.
An IC50 [1] greater than 10000 nM and an inhibition at 10 µM of 31% were found for `Cc1cc2nccc(-c3cccc(NC(=O)c4ccc(C)c(C(F)(F)F)c4)c3)n2n1` [Example 116, 4-methyl-N-[3-(2-methylpyrazolo[1,5-a]pyrimidin-7-yl)phenyl]-3-(trifluoromethyl)benzamide] in this work.
An IC50 [1] of 1900 nM and an inhibition at 10 µM of 56% were found for `O=C(Nc1cccc(-c2ccnc3cc(N4CCOCC4)nn23)c1)c1ccc(Cl)c(Cl)c1` [Example 198, 3,4-dichloro-N-[3-(2-morpholin-4-ylpyrazolo[1,5-a]pyrimidin-7-yl)phenyl]benzamide] in this work.
An IC50 [1] of 3780 nM and an inhibition at 10 µM of 31% were found for `CCOC(=O)c1cnn2c(-c3cccc(NC(=O)Nc4cc(C(F)(F)F)cc(C(F)(F)F)c4)c3)ccnc12` [Example 16, ethyl 7-{3-[({[3,5-bis(trifluoromethyl)phenyl]amino}carbonyl)amino]phenyl}pyrazolo[1,5-a]pyrimidine-3-carboxylate] in this work.
An IC50 of 200 nM and an inhibition at 10 µM of 89% were found for `CC(=O)Nc1ccc(-c2cnn3c(-c4cccc(NC(=O)c5ccc(C)c(C(F)(F)F)c5)c4)ccnc23)cc1` [Example 184, N-(3-{3-[4-(acetylamino)phenyl]pyrazolo[1,5-a]pyrimidin-7-yl}phenyl)-4-methyl-3-(trifluoromethyl)benzamide] in this work.
An IC50 [1] greater than 10000 nM and an inhibition at 10 µM of 44% were found for `O=C(Nc1cccc(-c2ccnc3cc(-c4ccncc4)nn23)c1)c1nccc2ccccc12` [Example 237, N-[3-(2-pyridin-4-ylpyrazolo[1,5-a]pyrimidin-7-yl)phenyl]isoquinoline-1-carboxamide] in this work.
An IC50 of 266 nM and an inhibition at 10 µM of 69% were found for `CC(=O)c1ccccc1-c1cnn2c(-c3cccc(NC(=O)c4cccc(C(F)(F)F)c4)c3)ccnc12` [Example 298, N-{3-[3-(2-acetylphenyl)pyrazolo[1,5-a]pyrimidin-7-yl]phenyl}-3-(trifluoromethyl)benzamide] in this work.
An IC50 [1] of 600 nM and an inhibition at 10 µM of 71% were found for `CCOC(=O)c1cnn2c(-c3cccc(NC(=O)Nc4ccc(Br)c(Cl)c4)c3)ccnc12` [Example 83, ethyl 7-[3-({[(4-bromo-3-chlorophenyl)amino]carbonyl}amino)phenyl]pyrazolo[1,5-a]pyrimidine-3-carboxylate] in this work.
An IC50 [1] greater than 10000 nM and an inhibition at 10 µM of 19% were found for `CCOC(=O)c1cnn2c(-c3cccc(NC(=O)c4cc(C(F)(F)F)cc(Cl)c4F)c3)ccnc12` [Example 28, ethyl 7-(3-{[3-chloro-2-fluoro-5-(trifluoromethyl)benzoyl]amino}phenyl)pyrazolo[1,5-a]pyrimidine-3-carboxylate] in this work.
An IC50 [1] of 514 nM and an inhibition at 10 µM of 82% were found for `O=C(O)c1cccc(-c2cnn3c(-c4cccc(NC(=O)c5cccc(C(F)(F)F)c5)c4)ccnc23)c1` [Example 314, 3-[7-(3-{[3-(trifluoromethyl)benzoyl]amino}phenyl)pyrazolo[1,5-a]pyrimidin-3-yl]benzoic acid] in this work.
An IC50 greater than 10000 nM and an inhibition at 10 µM of 16% were found for `CN1CCN(c2cc3nccc(-c4cccc(NC(=O)c5cccc(C(F)(F)F)c5)c4)n3n2)CC1` [Example 203, N-{3-[2-(4-methylpiperazin-1-yl)pyrazolo[1,5-a]pyrimidin-7-yl]phenyl}-3-(trifluoromethyl)benzamide] in this work.
An IC50 [1] of 1730 nM and an inhibition at 10 µM of 81% were found for `CN(C)CC#Cc1cnn2c(-c3cccc(NC(=O)c4cccc(C(F)(F)F)c4)c3)ccnc12` [Example 205, N-(3-{3-[3-(dimethylamino)prop-1-yn-1-yl]pyrazolo[1,5-a]pyrimidin-7-yl}phenyl)-3-(trifluoromethyl)benzamide] in this work.
An IC50 of 551 nM and an inhibition at 10 µM of 79% were found for `O=C(Nc1cccc(-c2ccnc3c(C#CCCCN4CCOCC4)cnn23)c1)c1cccc(C(F)(F)F)c1` [Example 282, N-{3-[3-(5-morpholin-4-ylpent-1-yn-1-yl)pyrazolo[1,5-a]pyrimidin-7-yl]phenyl}-3-(trifluoromethyl)benzamide] in this work.
An IC50 [1] of 112 nM and an inhibition at 10 µM of 94% were found for `CCOC(=O)c1cnn2c(-c3cc(NC(=O)c4cccc(C(F)(F)F)c4)ccc3F)ccnc12` [Example 91, ethyl 7-(2-fluoro-5-{[3-(trifluoromethyl)benzoyl]amino}phenyl)pyrazolo[1,5-a]pyrimidine-3-carboxylate] in this work.
An IC50 [1] greater than 10000 nM and an inhibition at 10 µM of 48% were found for `CNC(=O)c1cnn2c(-c3cccc(NC(=O)c4cccc(C(F)(F)F)c4)c3)ccnc12` [Example 31, N-methyl-7-(3-{[3-(trifluoromethyl)benzoyl]amino}phenyl)-pyrazolo[1,5-a]pyrimidine-3-carboxamide] in this work.
An IC50 [1] greater than 10000 nM and an inhibition at 10 µM of 9% were found for `CCOC(=O)c1cnn2c(-c3ccc(N4CC(C)OC(C)C4)c(NC(=O)c4cccc(C(F)(F)F)c4)c3)ccnc12` (stereo not shown) [Example 87, ethyl 7-(4-(2,6-dimethylmorpholin-4-yl)-3-{[3-(trifluoromethyl)benzoyl]amino}phenyl)pyrazolo[1,5-a]pyrimidine-3-carboxylate] in this work.
An IC50 [1] of 17000 nM and an inhibition at 10 µM of 84% were found for `CCOC(=O)c1cnn2c(-c3cccc(NC(=O)c4ccc(F)c(C(F)(F)F)c4)c3)ccnc12` [Example 2, ethyl 7-(3-{[4-fluoro-3-(trifluoromethyl)benzoyl]amino}phenyl)pyrazolo[1,5-a]pyrimidine-3-carboxylate] in this work.
An IC50 [1] of 2410 nM and an inhibition at 10 µM of 58% were found for `O=C(Nc1cccc(-c2ccnc3c(Br)cnn23)c1)Nc1ccc(Cl)c(Cl)c1` [Example 168, N-[3-(3-bromopyrazolo[1,5-a]pyrimidin-7-yl)phenyl]-N′-(3,4-dichlorophenyl)urea] in this work.
An IC50 [1] greater than 10000 nM and an inhibition at 10 µM of 43% were found for `CCOC(=O)c1cnn2c(-c3cccc(NC(=O)CC(C)CC(C)(C)C)c3)ccnc12` (stereo not shown) [Example 226, ethyl7-{3-[(3,5,5-trimethylhexanoyl)amino]phenyl}pyrazolo[1,5-a]pyrimidine-3-carboxylate] in this work.
An IC50 [1] greater than 10000 nM and an inhibition at 10 µM of 10% were found for `CCOC(=O)c1cnn2c(-c3cccc(NC(=O)c4cc(Cl)ccc4C)c3)ccnc12` [Example 74, ethyl 7-{3-[(5-chloro-2-methylbenzoyl)amino]phenyl}pyrazolo[1,5-a]pyrimidine-3-carboxylate] in this work.
An IC50 [1] of 140 nM and an inhibition at 10 µM of 92% were found for `O=C(Nc1cccc(-c2ccnc3c(Br)cnn23)c1)Nc1ccc(Cl)c(C(F)(F)F)c1` [Example 143, N-[3-(3-bromopyrazolo[1,5-a]pyrimidin-7-yl)phenyl]-N′-[4-chloro-3-(trifluoromethyl)phenyl]urea] in this work.
